Results reported in article PMC4471201, “Micafungin concentrations 100 mg daily in plasma and burn eschars in patients with severe burn injuries” (Critical Care, 2015).
*1 amine or outer side, *2 acyl side, *3 side chain or, on linkers, in order; H or OH if unused. Where a SMILES comes first, the peptide text is derived from it. Bridges are numbered along the chain shown (N, C = ends). [ ]: non-standard residue; d: D form. The star is where a group is joined. hTyr(3S-OH,4S-OH,3'-OSO3H) = N[C@H](C(=O)O)[C@H](O)[C@@H](O)c1ccc(O)c(OS(=O)(=O)O)c1; Orn(4R-OH,5R-OH) = O=C([C@H](C[C@@H](O)[C@@H](O)N[*:3])N[*:1])[*:2]; Pro(3S-OH,4S-Me) = C[C@H]1CN[C@H](C(=O)O)[C@H]1O; X1 = CCCCCOc1ccc(-c2cc(-c3ccc(C(=O)*)cc3)no2)cc1; Gln(3R-OH) = NC(=O)C[C@@H](O)[C@H](N)C(=O)O; Hyp = O=C(O)[C@@H]1C[C@@H](O)CN1

Key:
Type in all cases: in vivo
[1] = Tolerability of MCF 100 mg/day in severely burned patients; conditions: 10 severely burned patients
Protocol: (§1) A PK study of MCF at standard dosage (100 mg/day). Cmax (end of the infusion) and Cmin (before next dose) plasma levels of MCF were obtained after first dose and at steady state (days 4 and 5 of therapy); and on day 5 in eschars (1 to 3 hours after infusion). They were measured by HPLC. Spearman's rho test was used for bivariate correlations between MCF exposure and patient's clinical factors.
There were 10 patients (eight men; age: 18 to 77 years). […] Peak plasma concentrations after the first and repeated doses of MCF were inversely correlated with % burned TBSA (Spearman's ρ = -0.695 and -0.750 (P < 0.05)), respectively, but not with the time from burn injury. […] One patient had candidemia. The crude mortality was 40%.

[2] = MCF levels in burn eschar tissue on day 5, HPLC; conditions: Spearman's rho test; 10 patients
Protocol: as §1

[3] = Plasma levels of MCF (Cmax/Cmin) in severely burned patients, HPLC; conditions: 100 mg/day
Protocol: as §1

**Q.** With CCCCCOc1ccc(-c2cc(-c3ccc(C(=O)N[C@H]4C[C@@H](O)[C@@H](O)NC(=O)[C@@H]5[C@@H](O)[C@@H](C)CN5C(=O)[C@H]([C@H](O)CC(N)=O)NC(=O)[C@H]([C@H](O)[C@@H](O)c5ccc(O)c(OS(=O)(=O)O)c5)NC(=O)[C@@H]5C[C@@H](O)CN5C(=O)[C@H]([C@@H](C)O)NC4=O)cc3)no2)cc1 [MCF, Micafungin] (X1-[Orn(4R-OH,5R-OH)]T[Hyp][hTyr(3S-OH,4S-OH,3'-OSO3H)][Gln(3R-OH)][Pro(3S-OH,4S-Me)]; lactam 1-C) as the compound, how does the Tolerability [1] read?
**A.** Its Tolerability is “well tolerated”.

**Q.** And the “Correlation of concentrations in burn eschars with % burned TBSA” value [2]?
**A.** The value was “not correlated”.

**Q.** What about the “Plasma levels compared with MIC90 against most clinically important Candida species” value ([3]; after first and multiple doses) of the same compound?
**A.** Its value is “above the MIC90”.

**Q.** And the “Plasma Cmin after first dose, median” value ([3]; median of 10 patients, before next dose, plasma, HPLC)?
**A.** Its value is 0.7 µg/mL.

**Q.** What about the “Plasma Cmin at steady state, median” value ([3]; median of 10 patients, days 4 and 5 of therapy, before next dose, plasma, HPLC) of the same compound?
**A.** Its value is 1.0 µg/mL.

**Q.** And the “Plasma Cmax at steady state, median” value ([3]; median of 10 patients, days 4 and 5 of therapy, end of the infusion, plasma, HPLC)?
**A.** The value was 6.4 µg/mL.

**Q.** What about the “Plasma Cmax after first dose, median” value ([3]; median of 10 patients, end of the infusion, plasma, HPLC) of the same compound?
**A.** The value was 4.7 µg/mL.
